Measured values published in US20210154173A1, “PHARMACEUTICAL COMPOSITION INCLUDING CLAVULANIC ACID AND VALPROIC ACID, METHOD FOR TREATMENT OF EPILEPSY SEIZURE, AND METHOD FOR TREATMENT OF EPILEPSY-ASSOCIATED MOTOR SYMPTOM AND COGNITIVE IMPAIRMENT” (Arthur Wisdom Technology Consultants Ltd., priority 2019, published 2021).

How the values were obtained:
Format in all cases: in vivo, Wistar male rats
[1] = tested on: epilepsy rats (PTZ induced); assay: Seizure intensity by Racine score in PTZ-induced epilepsy rats (trial B); conditions: for seizure intensity (Racine score): 9th, 11th and 13th days
Description: Wistar male rats (8 week-old) purchased from BioLASCO Taiwan Co., Ltd were used. The rats were housed in an animal room with constant temperature of 21-24° C., where was kept on a 12-hours light and 12-hours dark cycle. The rats were housed and kept on free diet and water. 3 days before the trials, motor functions of the rats were tested by the rotarod test. On the 1st, 3rd, 5th, 7th, 9th, 11th and 13th days, pentylenetetrazol (PTZ, 35 mg/kg) was IP injected to the rats to induce epilepsy rats of groups A1-A5. On the 21st day, after administration of PTZ, seizure intensity of the rats was measured. Referring to TABLE 1, on the 7th, 8th, 9th, 10th, 11th, 12th and 13th days, clavulanic acid and/or valproic acid was IP injected to the epilepsy rats of groups A2-A5. Saline (1 mL/kg/day) was IP injected to the normal rats of group A0, as well as the epilepsy rats of group A1. On the 1st, 3rd, 5th, 7th, 9th, 11th, 13th and 21st days, the seizure intensity of the rats of groups A0-A5 was measured by Racine score. The seizure intensity was scored according to Racine's scale as follows: 0=normal, nonepileptic activity, 1=mouth and facial movements, hyperactivity, grooming, sniffing, scratching, wet dog shakes, 2=head nodding, staring, tremor, 3=forelimb clonus, forelimb extension, 4=rearing, salivating, tonic clonic activity and 5=falling, status epilepticus.

[2] = tested on: epilepsy rats (PTZ induced); assay: Rotarod test of motor function (trial C); conditions: 14th day, 25 rpm for 3 minutes
Description: Wistar male rats (8 week-old) purchased from BioLASCO Taiwan Co., Ltd were used. The rats were housed in an animal room with constant temperature of 21-24° C., where was kept on a 12-hours light and 12-hours dark cycle. The rats were housed and kept on free diet and water. 3 days before the trials, motor functions of the rats were tested by the rotarod test. On the 1st, 3rd, 5th, 7th, 9th, 11th and 13th days, pentylenetetrazol (PTZ, 35 mg/kg) was IP injected to the rats to induce epilepsy rats of groups A1-A5. On the 21st day, after administration of PTZ, seizure intensity of the rats was measured. Referring to TABLE 1, on the 7th, 8th, 9th, 10th, 11th, 12th and 13th days, clavulanic acid and/or valproic acid was IP injected to the epilepsy rats of groups A2-A5. Saline (1 mL/kg/day) was IP injected to the normal rats of group A0, as well as the epilepsy rats of group A1. On the 14th day, the motor function of the rats of groups A0-A5 was tested by rotarod test. On the 15th, 16th and 17th days, the cognitive impairment on object recognition ability of the rats of groups A0-A5 was tested by object recognition test. On the 18th, 19th and 20th days, the cognitive impairment on memory of the rats of groups A0-A5 was tested by passive avoidance test. Moreover, on the 22nd day, BrdU (5′-bromo-2′-deoxyuridine) was IP injected to the rats of groups A0-A5 to label the proliferating cells. On the 23rd day, the rats of groups A0-A5 were sacrificed and the coronal brain sections were collected. The sections with hippocampal dentate gyrus were used for BrdU staining. The number of BrdU-positive cells in hippocampal dentate gyrus was calculated. Next, motor function of the rats of groups A0-A5 was tested by rotarod test. Specifically, in the training session, the normal rat that had not yet been induced as epilepsy rat by PTZ was used as the rat R under the test. […] 3 trials were performed with a cutoff of 5 minutes. On the 14th day, the rats of groups A0-A5 were used as the rats R under the test. […]

[3] = tested on: epilepsy rats (PTZ induced); assay: Object recognition test (trial D); conditions: 17th day
Description: (§1) Wistar male rats (8 week-old) purchased from BioLASCO Taiwan Co., Ltd were used. The rats were housed in an animal room with constant temperature of 21-24° C., where was kept on a 12-hours light and 12-hours dark cycle. The rats were housed and kept on free diet and water.
(§2) 3 days before the trials, motor functions of the rats were tested by the rotarod test. On the 1st, 3rd, 5th, 7th, 9th, 11th and 13th days, pentylenetetrazol (PTZ, 35 mg/kg) was IP injected to the rats to induce epilepsy rats of groups A1-A5. On the 21st day, after administration of PTZ, seizure intensity of the rats was measured.
(§3) Referring to TABLE 1, on the 7th, 8th, 9th, 10th, 11th, 12th and 13th days, clavulanic acid and/or valproic acid was IP injected to the epilepsy rats of groups A2-A5. Saline (1 mL/kg/day) was IP injected to the normal rats of group A0, as well as the epilepsy rats of group A1.
On the 14th day, the motor function of the rats of groups A0-A5 was tested by rotarod test. On the 15th, 16th and 17th days, the cognitive impairment on object recognition ability of the rats of groups A0-A5 was tested by object recognition test. On the 18th, 19th and 20th days, the cognitive impairment on memory of the rats of groups A0-A5 was tested by passive avoidance test. […] The number of BrdU-positive cells in hippocampal dentate gyrus was calculated. […]
On the 17th day, during the test session, the rat R under the test was placed in the open box, shown as FIG. 6a, and the time spent exploring the object O1 (TO1) and the total time spent exploring the objects O1, O2 & O3 (TO1+O2+O3) were recorded, respectively. The percentage of the exploration time spent on the object O1 was calculated as (TO1/TO1+O2+O3)*100%. […] The time spent exploring the novel object O4 (TO4) and the total time spent exploring the objects O2 & O3 and the novel object O4 (TO2+O3+O4) were respectively recorded, and the percentage of the exploration time spent on the novel object O4 was calculated as […].

[4] = tested on: epilepsy rats (PTZ induced); assay: Passive avoidance test in shuttle box (trial E); conditions: after retention session of 24 hours, p<0.05 compared to group A0
Description: as §1, §2, §3
On the 14th day, the motor function of the rats of groups A0-A5 was tested by rotarod test. […] The number of BrdU-positive cells in hippocampal dentate gyrus was calculated. […]
After the retention session for 24 hours, the rat R under the test was placed in the light chamber C1, and the guillotine door D was opened, as shown in FIG. 8b. The latency to entrance into the dark chamber C2 was recorded. […]

[5] = tested on: epilepsy rats (PTZ induced); assay: BrdU staining of hippocampal dentate gyrus (trial F); conditions: 23rd day
Description: as §1, §2, §3
On the 14th day, the motor function of the rats of groups A0-A5 was tested by rotarod test. On the 15th, 16th and 17th days, the cognitive impairment on object recognition ability of the rats of groups A0-A5 was tested by object recognition test. On the 18th, 19th and 20th days, the cognitive impairment on memory of the rats of groups A0-A5 was tested by passive avoidance test. Moreover, on the 22nd day, BrdU (5′-bromo-2′-deoxyuridine) was IP injected to the rats of groups A0-A5 to label the proliferating cells. On the 23rd day, the rats of groups A0-A5 were sacrificed and the coronal brain sections were collected. The sections with hippocampal dentate gyrus were used for BrdU staining. The number of BrdU-positive cells in hippocampal dentate gyrus was calculated.
On the 22nd day, BrdU was IP injected to the rats to label the proliferating cells. On the 23rd day, the rats of groups A0-A5 were sacrificed and the coronal sections of the brain were collected. The sections with hippocampal dentate gyrus were used for BrdU staining.

[6] = group A4: valproic acid 50 mg/kg/day IP

Structure (SMILES) | seizure intensity (Racine score) ([1]; group A2: clavulanic acid 1 mg/kg/day IP days 7-13) | seizure intensity (Racine score) after drug holiday ([1]; group A3: clavulanic acid 10 mg/kg/day IP days 7-13, not treated days 14-20, 21st day, compared to group A1 (saline)) | seizure intensity (Racine score) ([1]; group A3: clavulanic acid 10 mg/kg/day IP days 7-13) | riding time on rotarod ([2]; group A2: clavulanic acid 1 mg/kg/day IP, no difference between group A0) | riding time on rotarod ([2]; group A3: clavulanic acid 10 mg/kg/day IP, p<0.05 compared to group A1) | percentage of time exploring novel object O4 versus object O1 ([3]; group A2: clavulanic acid 1 mg/kg/day IP, p<0.01) | percentage of time exploring novel object O4 versus object O1 ([3]; group A3: clavulanic acid 10 mg/kg/day IP, p<0.05) | latency to entrance into the dark chamber C2 ([4]; group A2: clavulanic acid 1 mg/kg/day IP) | number of BrdU-positive cells in hippocampal dentate gyrus ([5]; group A2: clavulanic acid 1 mg/kg/day IP, no difference compared to group A0) | number of BrdU-positive cells in hippocampal dentate gyrus ([5]; group A3: clavulanic acid 10 mg/kg/day IP, no difference compared to group A0) | seizure intensity (Racine score) ([1]; group A4: valproic acid 50 mg/kg/day IP days 7-13) | riding time on rotarod ([2]; group A4: valproic acid 50 mg/kg/day IP, p<0.001 compared to group A0) | percentage of time exploring novel object O4 versus object O1 [3, 6] | latency to entrance into the dark chamber C2 [4, 6] | number of BrdU-positive cells in hippocampal dentate gyrus ([5]; group A4: valproic acid 50 mg/kg/day IP, p<0.05 compared to A0)
O=C(O)[C@H]1/C(=C/CO)O[C@@H]2CC(=O)N21 [clavulanic acid] | 3-4 | still significantly lower | decreases | significantly increase the riding time | significantly increase the riding time | can recognize the novel object O4 | can recognize the novel object O4 | also decreases | can recover the number of BrdU-positive cells to normal | can recover the number of BrdU-positive cells to normal |  |  |  |  | 
CCCC(CCC)C(=O)O [valproic acid] |  |  |  |  |  |  |  |  |  |  | did not decrease | cannot improve the motor coordination and balance problems | cannot improve the cognitive decline on recognition ability | cannot improve the cognitive impairment on memory | cannot improve the defect on neurogenesis
